Data set [1] is described as follows: Solubility in solvents (dissolution in incubator, filtration through microfilter, visible absorption). The settings on record: for solubility at 12 h / Solubility in Water: water; for Solubility in Water / Solubility in MeOH / Solubility in H2O: 720 min. The data set is classed as physicochemical. An excerpt: The solubility of some of the compounds within formula (I) was accurately measured.
The measurement of solubility was made in the following manner.

Data set [2] can be described thus: Spectral sensitization of photographic silver halide emulsion. More on the design: Yellow filter sensitivity (SY) / Red filter sensitivity (SR): scale not given here. The settings on record: for Maximum Sensitization: spectrogram, tungsten light source of 2666° K.; for Yellow filter sensitivity (SY): yellow filter SC-50, 5 seconds exposure; for Yellow filter sensitivity (SY) / Red filter sensitivity (SR): standard point Fog+0.2; for Red filter sensitivity (SR): red filter SC-60, 5 seconds exposure. Here is the method:
A silver halide emulsion comprising pure silver bromide and having a cubic crystal form (the area ratio of the plane to the entire surface area of grain being 92%) was prepared and subjected to a sulfur sensitization treatment. The average diameter of silver halide grains contained in the emulsion was 0.68 μm, and 0.74 mol of silver halide per kg of emulsion was contained in the emulsion. One kg of the emulsion was weighed in each of pots. An aqueous solution of each of the compounds of formula (I) indicated in Tables 4 and 5 was added to the pot, and the mixture was mixed with stirring at 40° C. For the purpose of comparison, comparative compounds 1 and 2 wherein counter ion was iodide were dispersed in water and added to respective pots.
Further, 4-hydroxy-6-methyl-1,3,3a,7-tetraazaindene in an amount of 0.1 g/kg of emulsion, sodium salt of 2,4-dichloro-6-hydroxy-1,3,5-triazine in an amount of 0.1 g/kg of emulsion and sodium dodecylbenzenesulfonate in an amount of 0.1 g/kg of emulsion in order were added thereto. The emulsion was then coated on a polyethylene terephthalate film to obtain a photographic material.
Each of these samples was exposed through an optical wedge for 5 seconds by using a yellow filter (SC-50, a product of Fuji Photo Film Co., Ltd.) or a red filter (SC-60, a product of Fuji Photo Film Co., Ltd.) and tungsten light (5400° K.).
A spectrogram was obtained by using a grating spectrograph having a tungsten light source of 2666° K., and the maximum sensitization was measured.
After exposure, the samples were developed at 20° C for 4 minutes by using the following developing solution. The density of each of the developed films was measured by using a densitometer (manufactured by Fuji Photo Film Co., Ltd. Spectral sensitivity, that is, yellow filter sensitivity (SY) or red filter sensitivity (SR), sensitivity (SB) in the sensitive region inherent in silver halide, and fog were determined. Sensitivity was determined when the standard point of optical density was referred to as (Fog+0.2). Composition of Developing Solution […]
Two volumes of water were added thereto to obtain a working solution when used.

Setting [3] is: Table 3, read-out: Solubility in Water.

Read-outs that look alike come from different tables or passages of the source.

Consider `CCN1C(=CC=c2sc(=Cc3sc4ccccc4[n+]3CC)n(CC)c2=O)Sc2ccc(Cl)cc21` [Compound 3], for which the solubility (as a rule, how much of the substance goes into solution per volume) at 12 h in data set [1] (setting [3]) was 7200 µg/mL. For the compound `CN1C(=CC=c2sc(=Cc3sc4ccccc4[n+]3C)n(C)c2=O)Sc2ccccc21` [Compound 7], in data set [1] (Table 3), the “Solubility in Water” value came to 6200 µg/mL. On the same count and under the same terms, the same measure for `CN1C(=CC=c2sc(=Cc3sc4ccccc4[n+]3C)n(C)c2=O)Sc2ccccc21` [Compound 9]: 3800 µg/mL; for `CN1C(=CC=c2sc(=Cc3sc4ccccc4[n+]3C)n(C)c2=O)Sc2ccccc21` [Compound 10]: above 10000 µg/mL. Consider `CCN1C(=CC=c2sc(=Cc3sc4c5ccccc5ccc4[n+]3CC)n(CC)c2=O)Sc2ccc3ccccc3c21` [Compound 25], for which the “Solubility in MeOH” value in data set [1] (37° C., 12 hours) is above 25 mM; in data set [1] (37° C., 12 hours, Table 1), above 16000 µg/mL. Moreover, the solubility at 12 h in data set [1] (H2O, 37° C., 12 hours, Table 1, read-out: Solubility in H2O) came out at 6560 µg/mL; in data set [1] (H2O, 37° C., 12 hours, read-out: Solubility in H2O) it was 10.1 mM. For the compound `CCN1C(=CC=c2sc(=Cc3sc4c5ccccc5ccc4[n+]3C)n(CC)c2=O)Sc2ccc3ccccc3c21` [Compound 33], the “Solubility in Water” value in data set [1] (Table 3) was 5300 µg/mL. The same measure, in the same setting: the result for `CCN1C(=CC=c2sc(=Cc3sc4c5ccccc5ccc4[n+]3C)n(CC)c2=O)Sc2ccc3ccccc3c21` [Compound 34] reads 7100 µg/mL; that for `CCN1C(=CC=c2sc(=Cc3sc4c5ccccc5ccc4[n+]3C)n(CC)c2=O)Sc2ccc3ccccc3c21` [Compound 35], above 10000 µg/mL; that for `CCN1C(=CC=c2sc(=Cc3sc4c5ccccc5ccc4[n+]3C)n(CC)c2=O)Sc2ccc3ccccc3c21` [Compound 36], 4800 µg/mL. Take `CCn1c(=Cc2sc3c4ccccc4ccc3[n+]2CC)sc(=CC=C2SCCN2C)c1=O` [Compound 45]: in data set [1] (setting [3]), the solubility at 12 h is above 10000 µg/mL. `CCN1C(C)=CSC1=CC=c1sc(=Cc2sc3ccccc3[n+]2CC)n(CC)c1=O` [Compound 53]: the “Solubility in H2O” value in data set [1] (H2O, 37° C., 12 hours) is above 37 mM; in data set [1] (H2O, 37° C., 12 hours, Table 1), above 19000 µg/mL. Further, the “Solubility in MeOH” value in data set [1] (37° C., 12 hours) is above 33 mM; in data set [1] (37° C., 12 hours, Table 1), above 17000 µg/mL. For `CCN1C(=CC=c2sc(=Cc3oc4c5ccccc5ccc4[n+]3CC)n(CC)c2=O)Sc2c1ccc1ccccc21` [Compound 86], in data set [2] (Table 4), the “Maximum Sensitization” value is 630 nm and the “Yellow filter sensitivity (SY)” value is recorded as 890. Take `CCN1C(=CC=c2sc(=Cc3sc(-c4ccccc4)c(-c4ccccc4)[n+]3CC)n(CC)c2=O)Oc2ccccc21` [Compound 88]: in data set [2] (Table 4), the “Maximum Sensitization” value is on record as 565 nm and the “Yellow filter sensitivity (SY)” value amounted to 2085.

Regarding `CCN1C(=CC=c2sc(=Cc3sc(-c4ccccc4)c(-c4ccccc4)[n+]3CC)n(CC)c2=O)Sc2ccc3ccccc3c21` [Compound 89], in data set [2] (Table 4), the “Maximum Sensitization” value was 640 nm and the “Yellow filter sensitivity (SY)” value is on record as 705. `CCn1c(=Cc2sc(-c3ccccc3)c(-c3ccccc3)[n+]2CC)sc(=CC=C2N(C)c3ccccc3C2(C)C)c1=O` [Compound 91]: in data set [2] (Table 4), the “Maximum Sensitization” value turned out to be 600 nm and the “Yellow filter sensitivity (SY)” value worked out at 1730.

For `CCCn1c(=Cc2sc3ccccc3[n+]2CC)sc(=CC=C2C=Cc3ccccc3N2CC)c1=O` [Compound 96], in data set [2] (Table 5), the “Red filter sensitivity (SR)” value is 3600 and the “Maximum Sensitization” value is reported as 660 nm. As for `CC[n+]1c(C=c2sc(=CC=C3C=CN(C)C=C3)c(=O)n2C)sc2ccccc21` [Compound 98], in data set [1] (setting [3]), the solubility at 12 h was found to be 6800 µg/mL. Take `C=CCN1C=CC(=CC=c2sc(=Cc3sc4c5ccccc5ccc4[n+]3CC)n(CC=C)c2=O)c2ccccc21` [Compound 100]: in data set [2] (Table 5), the “Red filter sensitivity (SR)” value was found to be 1685 and the “Maximum Sensitization” value is reported as 715 nm. Turning to `CCCn1c(=Cc2oc3cc(C)c(C)cc3[n+]2CC)sc(=CC=C2C=CN(CC)c3ccccc32)c1=O` [Compound 101], in data set [2] (Table 5), the “Red filter sensitivity (SR)” value was found to be 2270 and the “Maximum Sensitization” value was found to be 695 nm.

Source of the values: patent US5424442A, “Water-soluble methine compounds useful in photographic silver halide emulsion containing the same” (Fuji Photo Film Co., Ltd., priority 1990, dated 1995).
